# Laboratory results: publication PMC7535926, “Serine phosphorylation regulates the P-type potassium pump KdpFABC” (eLife, 2020)
# Biological target: T1, KdpFABC (WT) (Escherichia coli, UniProt P03960)
# T1 construct: gene kdpB; full-length kdpFABC operon on plasmid pSD107 (native promoter), 8x His tag at C-terminus of KdpC; expressed in E. coli TK2499; purified in decyl maltoside; KdpB Ser162 phosphate removed with lambda protein phosphatase; Potassium-transporting ATPase KdpC subunit; Potassium-transporting ATPase KdpF subunit
# T1 sequence (P03960 whole entry): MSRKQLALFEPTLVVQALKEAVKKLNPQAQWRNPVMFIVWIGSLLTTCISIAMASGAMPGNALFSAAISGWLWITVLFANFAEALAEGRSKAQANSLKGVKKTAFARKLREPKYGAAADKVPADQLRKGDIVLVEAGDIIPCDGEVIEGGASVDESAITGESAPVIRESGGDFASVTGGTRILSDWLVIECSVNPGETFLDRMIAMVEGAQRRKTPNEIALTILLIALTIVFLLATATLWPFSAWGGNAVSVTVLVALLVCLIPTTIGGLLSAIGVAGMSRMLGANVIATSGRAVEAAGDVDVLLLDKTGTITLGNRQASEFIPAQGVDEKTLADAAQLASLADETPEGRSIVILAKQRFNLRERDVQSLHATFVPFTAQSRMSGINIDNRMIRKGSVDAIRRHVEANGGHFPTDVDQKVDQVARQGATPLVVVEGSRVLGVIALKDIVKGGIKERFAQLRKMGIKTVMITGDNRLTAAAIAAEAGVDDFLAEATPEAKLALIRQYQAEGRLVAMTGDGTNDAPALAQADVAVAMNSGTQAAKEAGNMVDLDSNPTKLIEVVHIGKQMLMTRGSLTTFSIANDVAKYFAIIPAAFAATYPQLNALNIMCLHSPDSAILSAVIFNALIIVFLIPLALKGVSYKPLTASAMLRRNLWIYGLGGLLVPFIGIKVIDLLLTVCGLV
# T1 sequence (P03959 whole entry partner): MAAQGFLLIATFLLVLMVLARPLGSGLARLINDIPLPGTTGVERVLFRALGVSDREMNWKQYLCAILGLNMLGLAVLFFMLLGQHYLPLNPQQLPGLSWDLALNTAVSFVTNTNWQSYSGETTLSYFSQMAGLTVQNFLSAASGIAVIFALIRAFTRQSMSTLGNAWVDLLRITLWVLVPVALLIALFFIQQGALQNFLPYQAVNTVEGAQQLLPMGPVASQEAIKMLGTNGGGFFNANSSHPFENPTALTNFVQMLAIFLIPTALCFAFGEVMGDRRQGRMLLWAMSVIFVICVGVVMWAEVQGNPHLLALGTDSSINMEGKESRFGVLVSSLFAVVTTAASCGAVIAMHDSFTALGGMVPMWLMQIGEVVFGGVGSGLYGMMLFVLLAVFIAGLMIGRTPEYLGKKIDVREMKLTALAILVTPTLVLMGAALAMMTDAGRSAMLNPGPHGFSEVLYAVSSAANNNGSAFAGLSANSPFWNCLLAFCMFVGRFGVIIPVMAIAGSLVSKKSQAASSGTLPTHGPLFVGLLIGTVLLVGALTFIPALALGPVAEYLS
# T1 sequence (P03961 whole entry partner): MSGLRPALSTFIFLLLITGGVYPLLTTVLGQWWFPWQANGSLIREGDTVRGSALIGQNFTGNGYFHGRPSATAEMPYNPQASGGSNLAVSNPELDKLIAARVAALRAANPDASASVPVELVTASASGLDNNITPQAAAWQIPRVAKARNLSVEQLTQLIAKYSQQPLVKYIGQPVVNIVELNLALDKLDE
# T1 sequence (P36937 whole entry partner): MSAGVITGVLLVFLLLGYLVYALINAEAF
# Assay: coupled-enzyme ATPase assay (pyruvate kinase / lactate dehydrogenase)
# Format: biochemical
smiles,measurement,value
[O]=[V]([OH])([OH])[OH] [orthovanadate],IC50,8.4 µM
